The compounds below were run on Hep3B cells (hepatocellular carcinoma cell line) (assay: In vitro MTS cell viability assay (NCI-60 methodology), Hep3B). Settings: Homo sapiens, 48 h, Table 1, MTS, 2 days drug incubation, 50% reduction vs time zero, read-out: Hep3B LC50.
Assay type: cell-based
Outline: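 Hep3B cells given five 2-fold dilutions of compound for 2 days, with viability by MTS measured at time zero and at end. LC50 is the concentration giving a 50% fall in viable cells relative to the start of treatment, per NCI-60 formula.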

Point of comparison: `CN(C)CCn1ncc2c(NC(=O)c3ccc([N+](=O)[O-])s3)nc(-c3ccc(OC(F)(F)F)cc3)nc21` [Compound 1-31, N-(1-(2-(dimethylamino)ethyl)-6-(4-(trifluoromethoxy)phenyl)-1H-pyrazolo[3,4-d]pyrimidin-4-yl)-5-nitrothiophene-2-carboxamide], LC50 1860 nM. Against it:
- Cn1ncc2c(NC(=O)c3ccc([N+](=O)[O-])s3)nc(Oc3cccc(C(F)(F)F)c3)nc21 [Compound 1-18, N-(1-methyl-6-(3-(trifluoromethyl)phenoxy)-1H-pyrazolo[3,4-d]pyrimidin-4-yl)-5-nitrothiophene-2-carboxamide] — within 1.5-fold, 1990 nM

Same assay, conditions: Homo sapiens, 48 h, Table 2, MTS, 2 days drug incubation, 50% reduction vs time zero, read-out: Hep3B LC50

Point of comparison: `CC(C)(C)c1ccc(-c2nc(NC(=O)c3ccc([N+](=O)[O-])s3)nc3c2cnn3C(C)(C)C)cc1` [Compound 2-5, N-(1-(tert-butyl)-4-(4-(tert-butyl)phenyl)-1H-pyrazolo[3,4-d]pyrimidin-6-yl)-5-nitrothiophene-2-carboxamide], LC50 12900 nM. Against it:
- Cc1csc2c(-c3cccc(OC(F)(F)F)c3)nc(NC(=O)c3ccc([N+](=O)[O-])s3)nc12 [Compound 2-7, N-(7-methyl-(3-(trifluoromethoxy)phenyl)thieno[3,2-d]pyrimidin-2-yl)-5-nitrothiophene-2-carboxamide] — 3.8-fold lower, 3430 nM
- Cn1ncc2c(-c3ccc(C(C)(C)C)cc3)nc(NC(=O)c3ccc([N+](=O)[O-])s3)nc21 [Compound 2-1, N-(4-(4-(tert-but)phenyl)-1-methyl-1H-pyrazolo[3,4-d]pyrimidin-6-yl)-5-nitrothiophene-2-carboxamide] — 4.1-fold lower, 3130 nM

Same assay, conditions: Homo sapiens, 48 h, Table 4, MTS, 2 days drug incubation, 50% reduction vs time zero, read-out: Hep3B LC50

Work on `Cc1csc2c(NC(=O)c3ccc([N+](=O)[O-])s3)nc(-c3cccc(C(F)(F)F)c3)nc12` [Compound 4-3, N-(7-methyl-2-(3-(trifluoromethyl)phenyl)thieno[3,2-1]pyrimidin-4-yl)-5-nitrothiophene-2-carboxamide] yielded an LC50 of 880 nM.

Same assay, conditions: Homo sapiens, 48 h, Table 5, MTS, 2 days drug incubation, 50% reduction vs time zero, read-out: Hep3B LC50

Point of comparison: `O=C(Nc1nc(-n2ccc(C(F)(F)F)n2)nc2c1cnn2-c1ccccc1)c1ccc([N+](=O)[O-])s1` [Compound 5-22, 5-nitro-N-(1-phenyl-6-(3-(trifluoromethyl)-1H-pyrazol-1-yl)-1H-pyrazolo[3,4-d]pyrimidin-4-yl)thiophene-2-carboxamide], LC50 380 nM. Against it:
- Cc1noc(C)c1-c1nc(NC(=O)c2ccc([N+](=O)[O-])s2)c2cnn(-c3ccccc3)c2n1 [Compound 5-21, N-(6-(3,5-dimethylisoxazol-4-yl)-1-phenyl-1H-pyrazolo[3,4-d]pyrimidin-4-yl)-5-nitrothiophene-2-carboxamide] — 2-fold higher, 760 nM
- O=C(Nc1nc(-c2ccccc2F)nc2c1cnn2-c1ccccc1)c1ccc([N+](=O)[O-])s1 [Compound 5-25, N-(6-(2-fluorophenyl)-1-phenyl-1H-pyrazolo[3,4-d]pyrimidin-4-yl)-5-nitrothiophene-2-carboxamide] — within 1.5-fold, 460 nM
- CCOCCOCCOc1nc(NC(=O)c2ccc([N+](=O)[O-])s2)c2cnn(-c3ccccc3)c2n1 [Compound 5-10, N-(6-(2-(2-ethoxyethoxy)ethoxy)-1-phenyl-1H-pyrazolo[3,4-d]pyrimidin-4-yl)-5-nitrothiophene-2-carboxamide] — higher, > 5000 nM
- CN(C)c1cccc(-c2nc(NC(=O)c3ccc([N+](=O)[O-])s3)c3cnn(-c4ccccc4)c3n2)c1 [Compound 5-41, N-(6-(3-(dimethylamino)phenyl)-1-phenyl-1H-pyrazolo[3,4-d]pyrimidin-4-yl)-5-nitrothiophene-2-carboxamide] — within 1.5-fold, 450 nM

Same assay, conditions: Homo sapiens, 48 h, Table 6, MTS, 2 days drug incubation, 50% reduction vs time zero, read-out: Hep3B LC50

Point of comparison: `CC(C)(C)c1ccc(-n2ncc3c(NC(=O)c4ccc([N+](=O)[O-])s4)nc(N4CCN(C(C)(C)C)CC4)nc32)cc1` [Compound 6-73], LC50 650 nM. Against it:
- COC[C@@H]1CCCN1c1nc(NC(=O)c2ccc([N+](=O)[O-])s2)c2cnn(-c3ccc(F)cc3)c2n1 [Compound 6-103, (S)—N-(1-(4-fluorophenyl)-6-(2-(methoxymethyl)pyrrolidin-1-yl)-1H-pyrazolo[3,4-d]pyrimidin-4-yl)-5-nitrothiophene-2-carboxamide] — within 1.5-fold, 780 nM
- Cc1ccc(-n2ncc3c(NC(=O)c4ccc([N+](=O)[O-])s4)nc(-c4ccc(Cl)cc4)nc32)cc1 [Compound 6-7] — 2.2-fold lower, 290 nM
- Cc1ccn(-c2nc(NC(=O)c3ccc([N+](=O)[O-])s3)c3cnn(-c4ccc(C(C)(C)C)cc4)c3n2)n1 [Compound 6-77, N-(1-(4-(tert-butyl)phenyl)-6-(3-methyl-1H-pyrazol-1-yl)-1H-pyrazolo[3,4-d]pyrimidin-4-yl)-5-nitrothiophene-2-carboxamide] — 2.6-fold lower, 250 nM
- CCOCCOCCOC[C@@H]1CCCN1c1nc(NC(=O)c2ccc([N+](=O)[O-])s2)c2cnn(-c3ccc(C(C)(C)C)cc3)c2n1 [Compound 6-72, (S)—N-(1-(4-(tert-butyl)phenyl)-6-(2-((2-(2-ethoxyethoxy)ethoxy)methyl)pyrrolidin-1-yl)-1H-pyrazolo[3,4-d]pyrimidin-4-yl)-5-nitrothiophene-2-carboxamide] — within 1.5-fold, 670 nM
- CCOC(=O)[C@@H]1CCCN1c1nc(NC(=O)c2ccc([N+](=O)[O-])s2)c2cnn(-c3ccc(F)cc3)c2n1 [Compound 6-101, ethyl (1-(4-fluorophenyl)-4-(5-nitrothiophene-2-carboxamido)-1H-pyrazolo[3,4-d]pyrimidin-6-yl)-L-prolinate] — higher, > 1250 nM
- O=C(Nc1nc(N2CCC(F)(F)CC2)nc2c1cnn2-c1ccc(F)cc1)c1ccc([N+](=O)[O-])s1 [Compound 6-98, N-(6-(4,4-difluoropiperidin-1-yl)-1-(4-fluorophenyl)-1H-pyrazolo[3,4-d]pyrimidin-4-yl)-5-nitrothiophene-2-carboxamide] — 1.5-fold lower, 430 nM
- Cc1ccc(-n2ncc3c(NC(=O)c4ccc([N+](=O)[O-])s4)nc(-c4ccc5c(c4)OCCO5)nc32)cc1 [Compound 6-10, N-(6-(2,3-dihydrobenzo[b][1,4]dioxin-6-yl)-1-(p-tolyl)-1H-pyrazolo[3,4-d]pyrimidin-4-yl)-5-nitrothiophene-2-carboxamide] — within 1.5-fold, 620 nM
- Cc1ccc(-n2ncc3c(NC(=O)c4ccc([N+](=O)[O-])s4)nc(N4CCC[C@H]4CO)nc32)cc1 [Compound 6-3, (S)—N-(6-(2-(hydroxymethyl)pyrrolidin-1-yl)-1-(p-tolyl)-1H-pyrazolo[3,4-d]pyrimidin-4-yl)-5-nitrothiophene-2-carboxamide] — within 1.5-fold, 870 nM
- CCOCCOc1ccc(-c2nc(NC(=O)c3ccc([N+](=O)[O-])s3)c3cnn(-c4ccc(C)cc4)c3n2)cn1 [Compound 6-13, N-(6-(6-(2-ethoxyethoxy)pyridin-3-yl)-1-(p-tolyl)-1H-pyrazolo[3,4-d]pyrimidin-4-yl)-5-nitrothiophene-2-carboxamide] — within 1.5-fold, 510 nM
- CCOCCOc1ccc(-c2nc(NC(=O)c3ccc([N+](=O)[O-])s3)c3cnn(-c4cccc(Cl)c4)c3n2)cn1 [Compound 6-44, N-(1-(3-chlorophenyl)-6-(6-(2-ethoxyethoxy)pyridin-3-yl)-1H-pyrazolo[3,4-d]pyrimidin-4-yl)-5-nitrothiophene-2-carboxamide] — within 1.5-fold, 450 nM

Same assay, conditions: Homo sapiens, 48 h, Table 7, MTS, 2 days drug incubation, 50% reduction vs time zero, read-out: Hep3B LC50

Point of comparison: `O=C(Nc1nc(-c2ccc(F)nc2)nc2c1cnn2-c1ccc(F)cc1F)c1ccc([N+](=O)[O-])s1` [Compound 7-13], LC50 130 nM. Against it:
- Cc1ccc(-c2nc(NC(=O)c3ccc([N+](=O)[O-])s3)c3cnn(Cc4ccccc4)c3n2)cn1 [Compound 7-17, N-(1-benzyl-6-(6-methylpyridin-3-yl)-1H-pyrazolo[3,4-d]pyrimidin-4-yl)-5-nitrothiophene-2-carboxamide] — higher, > 1250 nM

Same assay, conditions: Homo sapiens, 48 h, Table 9, MTS, 2 days drug incubation, 50% reduction vs time zero, read-out: Hep3B LC50

In the case of `CCOCCOC(=O)N1CCC(n2ncc3c(NC(=O)c4ccc([N+](=O)[O-])s4)nc(-c4ccc(Cl)cc4)nc32)CC1` [Compound 9-13, 2-ethoxyethyl 4-(6-(4-chlorophenyl)-4-(5-nitrothiophene-2-carboxamido)-1H-pyrazolo [3,4-d]pyrimidin-1-yl)piperidine-1-carboxylate], the LC50 is reported as 1620 nM.

Same assay, conditions: Homo sapiens, 48 h, Table 10, MTS, 2 days drug incubation, 50% reduction vs time zero, read-out: Hep3B LC50

Point of comparison: `COC(=O)c1cccc(-c2nc(NC(=O)c3ccc([N+](=O)[O-])s3)c3cnn(C4CCCCC4)c3n2)c1` [Compound 10-31, methyl 3-(1-cyclohexyl-4-(5-nitrothiophene-2-carboxamido)-1H-pyrazolo[3,4-d]pyrimidin-6-yl)benzoate], LC50 580 nM. Against it:
- O=C(Nc1nc(-c2cccc(Cl)c2)nc2c1cnn2C1CCCCC1)c1ccc([N+](=O)[O-])s1 [Compound 10-16, N-(6-(3-chlorophenyl)-1-cyclohexyl-1H-pyrazolo[3,4-d]pyrimidin-4-yl)-5-nitrothiophene-2-carboxamide] — within 1.5-fold, 610 nM
- CCOc1ccc(-c2nc(NC(=O)c3ccc([N+](=O)[O-])s3)c3cnn(C4CCCCC4)c3n2)cc1Cl [Compound 10-44] — higher, > 2000 nM
- COCc1ccc(-c2nc(NC(=O)c3ccc([N+](=O)[O-])s3)c3cnn(C4CCCCC4)c3n2)cc1 [Compound 10-30, N-(1-cyclohexyl-6-(4-(methoxymethyl)phenyl)-1H-pyrazolo[3,4-d]pyrimidin-4-yl)-5-nitrothiophene-2-carboxamide] — within 1.5-fold, 840 nM
- N#Cc1ccc(-c2nc(NC(=O)c3ccc([N+](=O)[O-])s3)c3cnn(C4CCCCC4)c3n2)cc1 [Compound 10-20, N-(6-(4-cyanophenyl)-1-cyclohexyl-1H-pyrazolo[3,4-d]pyrimidin-4-yl)-5-nitrothiophene-2-carboxamide] — 2.1-fold higher, 1200 nM
- COc1ccc(-c2nc(NC(=O)c3ccc([N+](=O)[O-])s3)c3cnn(C4CCCCC4)c3n2)cc1OC [Compound 10-48, N-(1-cyclohexyl-6-(3,4-dimethoxyphenyl)-1H-pyrazolo[3,4-d]pyrimidin-4-yl)-5-nitrothiophene-2-carboxamide] — 1.7-fold higher, 970 nM
